# Data published in PMC8609999, “A Phase I trial of talazoparib in patients with advanced hematologic malignancies” (International Journal of Hematologic Oncology, 2021).
# Read-outs that look alike come from different tables or passages of the source. Marks after values point to notes of the source that are not given here.
# Key:
# [1] = system: patients with germline BRCA1/2 mutations and solid tumors; conditions: NCT01286987; cited from earlier work
# [2] = system: germline BRCA1/2-mutated HER2- advanced breast cancer; design: method as in PMID 30110579; conditions: 1 mg once daily; cited from earlier work
# [3] = system: patients with advanced hematologic malignancies (cohort 1: AML/MDS; cohort 2: CLL/MCL); assay type: in vivo, human
# Excerpt: AEs were coded in accordance with The Medical Dictionary for Regulatory Activities, version 16.1. Treatment-emergent AEs (TEAEs) were defined as AEs that were new, increased in frequency, or worsened in severity, after the first talazoparib dose. AEs counted as drug-related had been classified by investigators as possibly or probably related to talazoparib.
# All analyses in this open-label, dose-finding study were descriptive in nature. Descriptive summaries of continuous variables, including the mean, standard deviation (SD), median, range, and, where appropriate, 95% CI and/or interquartile range, were determined using the Statistical Analysis Software (SAS), version 9.2. Descriptive summaries of categorical variables included the number of patients and percentages. Data were summarized with respect to the dose level at which the patients started treatment. Cohorts were defined as all patients who began treatment at a given dose level.
# [4] = system: advanced hematologic malignancies (AML, MDS, CLL, MCL); assay: Anti-leukemic activity (best overall response); assay type: in vivo, human
# Protocol: Objective response, duration of objective response, and time to progression or treatment failure were recorded. Response was measured by the following response criteria: the European leukemiaNet for subjects with AML [30], the International Working Group for Prognosis in MDS for subjects with MDS [31, 32], the International Workshop on Chronic Lymphocytic leukemia (iwCLL) for subjects with CLL, and the Revised Response Criteria for MCL [34].
# [5] = Plasma pharmacokinetics after multiple daily talazoparib dosing; assay type: in vivo, human
# Protocol: Plasma and urine samples were assayed for talazoparib concentrations by Covance Laboratories Inc., using validated high performance liquid chromatography with tandem mass spectrometry detection methods. The lower limits of quantitation for […] and urine were 5.0 pg/ml and 25.0 pg/ml, respectively. Evaluated PK parameters included maximum concentration (Cmax), minimum concentration (Cmin), time to maximum plasma concentration (Tmax), area under the curve from time 0 to last measurable concentration (AUC0–t), area under the curve from time 0 to 24 h post-dose (AUC0–24), amount of drug excreted into the urine from time 0 to 24 h (Ae0–24), fraction of administered drug excreted in the urine from time 0 to 24 h (Fe0–24), and average renal clearance from time 0 to 24 h (ARC0–24); ARC0–24 was calculated as (Ae0–24/AUC0–24). PK parameters were calculated using Phoenix™ WinNonlin® 6.1.
# Summary statistics for plasma and urine talazoparib concentrations and PK parameters were calculated by grouping subjects in cohorts 1 and 2 together to provide a larger sample size at each dose level.
# [6] = 1.35 mg/day, cycle 2 day 1, plasma, n = 3, median (range)
compound,measurement,setting,value
Cn1ncnc1[C@H]1c2n[nH]c(=O)c3cc(F)cc(c23)N[C@@H]1c1ccc(F)cc1 [talazoparib],Maximum tolerated dose (MTD),[1],1 mg once daily
same,Progression-free survival compared with physician's choice of chemotherapy,[2],significantly longer progression-free survival
same,Any AEs of CTCAE Grade of 5 (death),"[3]; Cohort 1, 0.10 mg/day (n = 3)",0 (0.0) n (%)
same,Any study drug-related AEs of CTCAE Grade 5 (death),"[3]; Cohort 1, 0.10 mg/day (n = 3)",0 (0.0) n (%)
same,Any AEs of CTCAE Grade of 5 (death),"[3]; Cohort 1, 0.20 mg/day (n = 3)",2 (66.7) n (%)
same,Any study drug-related AEs of CTCAE Grade 5 (death),"[3]; Cohort 1, 0.20 mg/day (n = 3)",0 (0.0) n (%)
same,Any AEs of CTCAE Grade of 5 (death),"[3]; Cohort 1, 0.30 mg/day (n = 5)",1 (20.0) n (%)
same,Any study drug-related AEs of CTCAE Grade 5 (death),"[3]; Cohort 1, 0.30 mg/day (n = 5)",0 (0.0) n (%)
same,Any AEs of CTCAE Grade of 5 (death),"[3]; Cohort 1, 0.45 mg/day (n = 3)",2 (66.7) n (%)
same,Any study drug-related AEs of CTCAE Grade 5 (death),"[3]; Cohort 1, 0.45 mg/day (n = 3)",0 (0.0) n (%)
same,Any AEs of CTCAE Grade of 5 (death),"[3]; Cohort 1, 0.90 mg/day (n = 4)",3 (75.0) n (%)
same,Any study drug-related AEs of CTCAE Grade 5 (death),"[3]; Cohort 1, 0.90 mg/day (n = 4)",0 (0.0) n (%)
same,Any AEs,"[3]; Cohort 1, 1.35 mg/day (n = 3)",3 (100) n (%)
same,Any AEs leading to dose interruption or modification,"[3]; Cohort 1, 1.35 mg/day (n = 3)",0 (0.0) n (%)
same,Any AEs leading to study drug withdrawn,"[3]; Cohort 1, 1.35 mg/day (n = 3)",0 (0.0) n (%)
same,Any AEs of CTCAE Grade 3 or 4,"[3]; Cohort 1, 1.35 mg/day (n = 3)",3 (100) n (%)
same,Any AEs of CTCAE Grade of 5 (death),"[3]; Cohort 1, 1.35 mg/day (n = 3)",1 (33.3) n (%)
same,Any SAEs,"[3]; Cohort 1, 1.35 mg/day (n = 3)",2 (66.7) n (%)
same,Any SAEs of CTCAE Grade of 3 or 4,"[3]; Cohort 1, 1.35 mg/day (n = 3)",2 (66.7) n (%)
same,Any study drug-related AEs,"[3]; Cohort 1, 1.35 mg/day (n = 3)",3 (100) n (%)
same,Any study drug-related AEs leading to dose interruption or modification,"[3]; Cohort 1, 1.35 mg/day (n = 3)",0 (0.0) n (%)
same,Any study drug-related AEs leading to study drug withdrawal,"[3]; Cohort 1, 1.35 mg/day (n = 3)",0 (0.0) n (%)
same,Any study drug-related AEs of CTCAE Grade 5 (death),"[3]; Cohort 1, 1.35 mg/day (n = 3)",0 (0.0) n (%)
same,Any study drug-related AEs of CTCAE Grade of 3 or 4,"[3]; Cohort 1, 1.35 mg/day (n = 3)",2 (66.7) n (%)
same,Any study drug-related SAEs,"[3]; Cohort 1, 1.35 mg/day (n = 3)",0 (0.0) n (%)
same,Any AEs of CTCAE Grade of 5 (death),"[3]; Cohort 1, 2.00 mg/day (n = 4)",3 (75.0) n (%)
same,Any study drug-related AEs of CTCAE Grade 5 (death),"[3]; Cohort 1, 2.00 mg/day (n = 4)",1 (25.0)^§ n (%)
same,Any AEs of CTCAE Grade of 5 (death),"[3]; Cohort 1, All (n = 25)",12 (48.0) n (%)
same,Any study drug-related AEs of CTCAE Grade 5 (death),"[3]; Cohort 1, All (n = 25)",1 (4.0)^§ n (%)
same,Any AEs of CTCAE Grade of 5 (death),"[3]; Cohort 2, 0.10 mg/day (n = 3)",1 (33.3) n (%)
same,Any study drug-related AEs of CTCAE Grade 5 (death),"[3]; Cohort 2, 0.10 mg/day (n = 3)",0 (0.0) n (%)
same,Any AEs of CTCAE Grade of 5 (death),"[3]; Cohort 2, 0.90 mg/day (n = 5)",0 (0.0) n (%)
same,Any study drug-related AEs of CTCAE Grade 5 (death),"[3]; Cohort 2, 0.90 mg/day (n = 5)",0 (0.0) n (%)
same,Any AEs of CTCAE Grade of 5 (death),"[3]; Cohort 2, All (n = 8)",1 (12.5) n (%)
same,Any study drug-related AEs of CTCAE Grade 5 (death),"[3]; Cohort 2, All (n = 8)",0 (0.0) n (%)
same,Deaths,"[3]; both cohorts, N = 33, during study or within 30 days after last dose",39.4%
same,Patients with Grade 3/4 TEAEs,"[3]; human, in vivo",84.8%
same,Patients with TEAEs leading to dose interruption/reduction related to study drug,"[3]; human, in vivo",30.3%
same,Patients with a Grade 3/4 SAE,"[3]; human, in vivo",51.5%
same,Patients with a drug-related SAE,"[3]; human, in vivo",9.1%
same,Patients with at least one TEAE leading to dose interruption and/or reduction,"[3]; human, in vivo",45.5%
same,Patients with drug-related Grade 3/4 TEAEs,"[3]; human, in vivo",42.4%
same,Patients with drug-related TEAEs (possibly or probably related),"[3]; human, in vivo",69.7%
same,Patients with serious AEs (SAEs),"[3]; human, in vivo",75.8%
same,TEAE: Fatigue,"[3]; n = 33, All grades (Grade 1–4 only)",13 (39.4) n (%)
same,Stable disease (best overall response),"[4]; Cohort 1, AML (n = 21)",9 (42.9) n (%)
same,Stable disease ≥16 weeks,"[4]; Cohort 1, AML (n = 21)",2 (9.5)^‡ n (%)
same,Stable disease (best overall response),"[4]; Cohort 1, All (n = 25)",13 (52.0) n (%)
same,Stable disease ≥16 weeks,"[4]; Cohort 1, All (n = 25)",5 (20.0) n (%)
same,Stable disease (best overall response),"[4]; Cohort 1, MDS (n = 4)",4 (100) n (%)
same,Stable disease ≥16 weeks,"[4]; Cohort 1, MDS (n = 4)",3 (75.0)^§ n (%)
same,Stable disease (best overall response),"[4]; Cohort 2, All (n = 8)",5 (62.5) n (%)
same,Stable disease ≥16 weeks,"[4]; Cohort 2, All (n = 8)",1 (12.5) n (%)
same,Stable disease (best overall response),"[4]; Cohort 2, CLL (n = 4)",3 (75.0) n (%)
same,Stable disease ≥16 weeks,"[4]; Cohort 2, CLL (n = 4)",0 n (%)
same,Stable disease (best overall response),"[4]; Cohort 2, MCL (n = 4)",2 (50.0) n (%)
same,Stable disease ≥16 weeks,"[4]; Cohort 2, MCL (n = 4)",1 (25.0) n (%)
same,Patients with stable disease,"[4]; both cohorts, N = 33",54.5%
same,Stable disease of at least 16 weeks' duration,"[4]; both cohorts, N = 33",six
same,Transfusion independence,[4]; one with MDS and one with AML,two
same,AR (accumulation ratio),[5]; [6],"3.80 (3.28, 4.22)"
same,Tmax,[5]; [6],"1.03 (1.00, 4.00) hr"
same,AUC(0-t),"[5]; human, in vivo, 1.35 mg/day, cycle 2 day 1, plasma, n = 3, geometric mean (geometric CV%), read-out: AUC0–24",226 ng·h/mL
same,AUC(0-t),"[5]; human, in vivo, 1.35 mg/day, cycle 2 day 1, plasma, n = 3, geometric mean (geometric CV%), read-out: AUC0–t",225 ng·h/mL
same,Cmax,"[5]; human, in vivo, 1.35 mg/day, cycle 2 day 1, plasma, n = 3, geometric mean (geometric CV%)",19.7 ng/mL
same,Total exposure vs dose,[5]; in vivo,dose-proportional increases in total exposure
